Test results reported in patent US8552176B2 (priority 2010, dated 2013).

What was measured:
Assay in all cases: cells
Type in all cases: cell-based, human
SKOV3 = settings: read-out: GI50 SKOV3 ovary
NCI-H460 = settings: read-out: GI50 NCI-H460 lung
MCF7 = settings: read-out: GI50 MCF7 breast
Hep3b = settings: read-out: GI50 Hep3b liver
H1299 = settings: read-out: GI50 H1299 lung (−p53)
DU-145 = settings: read-out: GI50 DU-145 prostate
A549 = settings: read-out: GI50 A549 lung (+p53)
SF-268 = settings: read-out: GI50 SF-268 CNS
HT29 = settings: read-out: GI50 HT29 colorectal
HCT-15 = settings: read-out: GI50 HCT-15 colorectal

Structure (SMILES)	GI50 (SKOV3)	GI50 (NCI-H460)	GI50 (MCF7)	GI50 (Hep3b)	GI50 (H1299)	GI50 (DU-145)	GI50 (A549)	GI50 (SF-268)	GI50 (HT29)	GI50 (HCT-15)
CON(CCCCc1ccc(N(CCCl)CCCl)cc1)C1OCC(O)C(O)C1O (mixture of isomers) [Compound 41]	1.8 ± 0.1 µM	5.2 ± 0.4 µM	1 ± 0.2 µM	2.5 ± 0.1 µM	0.76 ± 0.05 µM	3.6 ± 0.1 µM	2.3 ± 0.1 µM	1.6 ± 0.1 µM	2 ± 0.1 µM	0.79 ± 0.05 µM
CON(CCCCc1ccc(N(CCCl)CCCl)cc1)C1OC(C)C(OCc2ccccc2)C(OCc2ccccc2)C1OCc1ccccc1 (mixture of isomers) [Compound 22]	7.2 ± 0.4 µM	15.8 ± 0.7 µM	4 ± 1 µM	9.5 ± 0.4 µM	3.3 ± 0.2 µM	10 ± 0.4 µM	6.4 ± 0.2 µM	5.7 ± 0.2 µM	7.5 ± 0.3 µM	4.6 ± 0.2 µM
CON(CCCCc1ccc(N(CCCl)CCCl)cc1)C1OC(CN)C(O)C(O)C1O (mixture of isomers) [Compound 34]	2.2 ± 0.1 µM	5 ± 0.4 µM	3.7 ± 0.4 µM	3.5 ± 0.2 µM	1.1 ± 0.1 µM	2.8 ± 0.1 µM	3.7 ± 0.2 µM	2.2 ± 0.1 µM	2.5 ± 0.1 µM	1.3 ± 0.1 µM
CON(CCCCc1ccc(N(CCCl)CCCl)cc1)C1OC(CO)C(O)C(O)C1O (stereo not drawn) [Compound 29]	4.5 ± 0.6 µM	14.3 ± 0.9 µM	1.8 ± 0.2 µM	5 ± 0.6 µM	1.6 ± 0.1 µM	7 ± 0.5 µM	6.8 ± 0.8 µM	2.2 ± 0.1 µM	4.6 ± 0.4 µM	2.8 ± 0.2 µM
CON(CCCCc1ccc(N(CCCl)CCCl)cc1)C1CC(O)C(O)C(C)O1 (stereo not drawn) [Compound 50]	3.2 ± 0.1 µM	5.7 ± 0.6 µM	3.1 ± 0.2 µM	3.8 ± 0.2 µM	4.8 ± 0.5 µM	5.5 ± 0.1 µM	3.1 ± 0.2 µM	2.3 ± 0.8 µM	3.2 ± 0.2 µM	2.5 ± 0.2 µM
CON(CCCCc1ccc(N(CCCl)CCCl)cc1)C1OCC(O)C(O)C1O (mixture of isomers) [Compound 15]	2.2 ± 0.1 µM	6.1 ± 0.5 µM	5.4 ± 0.1 µM	1.9 ± 0.1 µM	0.84 ± 0.04 µM	3.6 ± 0.1 µM	2.3 ± 0.2 µM	1.9 ± 0.1 µM	1.9 ± 0.1 µM	1 ± 0.05 µM
CON(CCCCc1ccc(N(CCCl)CCCl)cc1)C1OC(CO)C(O)C(O)C1O (mixture of isomers) [Compound 44]	2.9 ± 0.1 µM	9.8 ± 0.9 µM	2.2 ± 0.2 µM	3.7 ± 0.2 µM	1.2 ± 0.1 µM	4.9 ± 0.1 µM	4.1 ± 0.2 µM	2 ± 0.1 µM	3.4 ± 0.2 µM	2.2 ± 0.1 µM
CON(CCCCc1ccc(N(CCCl)CCCl)cc1)C1OC(CO)C(O)C(O)C1O (mixture of isomers) [Compound 11]	3.1 ± 0.1 µM	10.4 ± 0.8 µM	9 ± 0.7 µM	2.5 ± 0.1 µM	1.3 ± 0.1 µM	6 ± 0.1 µM	3.5 ± 0.2 µM	3.2 ± 0.1 µM	2.2 ± 0.1 µM	1.7 ± 0.1 µM
C=CCOC(=O)NCC1OC(N(CCCCc2ccc(N(CCCl)CCCl)cc2)OC)C(O)C(O)C1O (stereo not drawn) [Compound 35]	2.9 ± 0.1 µM	11 ± 0.1 µM	7.4 ± 0.1 µM	4.6 ± 0.2 µM	2.1 ± 0.1 µM	6.2 ± 0.4 µM	4.5 ± 0.3 µM	3.1 ± 0.1 µM	2.8 ± 0.2 µM	2.1 ± 0.1 µM
CON(CCCCc1ccc(N(CCCl)CCCl)cc1)C1OCC(O)C(O)C1O (mixture of isomers) [Compound 42]	1.8 ± 0.1 µM	5.8 ± 0.1 µM	0.94 ± 0.2 µM	3 ± 0.1 µM	0.88 ± 0.04 µM	3.9 ± 0.1 µM	2.2 ± 0.1 µM	1.2 ± 0.1 µM	2.4 ± 0.1 µM	0.95 ± 0.08 µM
CON(CCCCc1ccc(N(CCCl)CCCl)cc1)C1OC(CO)C(O)C(F)C1O (stereo not drawn) [Compound 32]	2.2 ± 0.1 µM	7.1 ± 0.9 µM	7 ± 0.8 µM	3.2 ± 0.1 µM	1.3 ± 0.1 µM	4.1 ± 0.1 µM	3 ± 0.1 µM	2.2 ± 0.1 µM	2.6 ± 0.2 µM	1.2 ± 0.1 µM
CON(CCCCc1ccc(N(CCCl)CCCl)cc1)C1OC(C(=O)O)C(O)C(O)C1O (mixture of isomers) [Compound 26]	12.8 ± 0.5 µM	34 ± 2 µM	4.5 ± 0.5 µM	14.7 ± 0.8 µM	4.9 ± 0.7 µM	16.3 ± 0.5 µM	17.1 ± 0.8 µM	8.9 ± 0.4 µM	14.9 ± 0.1 µM	8.1 ± 0.6 µM
